Data taken from US8198273B2, “Compounds and methods for kinase modulation, and indications therefor” (Plexxikon Inc., priority 2009, dated 2012).

How the values were obtained:
CYP3A4(BFC) = CYP3A4(BFC) (Homo sapiens, UniProt P08684); assay: CYP3A4(BFC) inhibition (fluorescent substrate); type: in vitro ADME; conditions: read-out: Cyp IC50 3A4(BFC)
Protocol: CYP (Cytochrome P450) enzymes are the major drug metabolizing enzymes present in the liver. The inhibition of CYP enzyme activity (IC50) for each of CYP1A2, CYP2C19, CYP2C9, CYP2D6, CYP3A4(BFC) and CYP3A4(BQ) is determined for compounds, where inhibition of metabolism of a known substrate leads to a decrease in the fluorescence of the metabolized product. The fluorescence of the product is monitored as a function of compound concentration. Compounds are dissolved in dimethyl sulfoxide to a concentration of 100 mM. These are diluted 1 μL into 82 μL of acetonitrile. […] These are then serially diluted 1:1 (160 μL to 160 μL co-factor mix) for a total of 10 points. A 10 μL aliquot of this final mixture is dispensed into 384 well assay plates and incubated for 10 minutes at 37° C. […] Assay plates are incubated at 37° C. […] The signal versus compound concentration is used to determine the IC50. The enzymes and substrates for this assay are obtained from BD Biosciences.

B-Raf V600E = B-Raf V600E (Homo sapiens, UniProt P15056, V600E); assay: B-Raf V600E biochemical kinase inhibition (AlphaScreen, biotin-MEK1 substrate); conditions: 100 μM ATP
Protocol: (§1) Compounds to be tested are diluted in dimethyl sulfoxide to a concentration of 0.1 mM. These are serially diluted 15 μL into 30 μL of dimethyl sulfoxide seven times in 96 well plates for a total of 8 dilution points, and for each dilution point 1 μL is added to a well of an assay plate. […] The reaction is started with addition of 10 μL of 200 μM ATP (i.e. final 100 μM ATP). […] The plates are incubated for 3 hours at room temperature and read on Envision reader (Perkin Elmer). […] The signal vs. compound concentration is used to determine the IC50.

c-Raf-1 = c-Raf-1 (Homo sapiens, UniProt P04049); assay: c-Raf-1 biochemical kinase inhibition (AlphaScreen, biotin-MEK1 substrate); conditions: 100 μM ATP
Protocol: as §1

Chain of CYP3A4(BFC) (P08684 whole entry): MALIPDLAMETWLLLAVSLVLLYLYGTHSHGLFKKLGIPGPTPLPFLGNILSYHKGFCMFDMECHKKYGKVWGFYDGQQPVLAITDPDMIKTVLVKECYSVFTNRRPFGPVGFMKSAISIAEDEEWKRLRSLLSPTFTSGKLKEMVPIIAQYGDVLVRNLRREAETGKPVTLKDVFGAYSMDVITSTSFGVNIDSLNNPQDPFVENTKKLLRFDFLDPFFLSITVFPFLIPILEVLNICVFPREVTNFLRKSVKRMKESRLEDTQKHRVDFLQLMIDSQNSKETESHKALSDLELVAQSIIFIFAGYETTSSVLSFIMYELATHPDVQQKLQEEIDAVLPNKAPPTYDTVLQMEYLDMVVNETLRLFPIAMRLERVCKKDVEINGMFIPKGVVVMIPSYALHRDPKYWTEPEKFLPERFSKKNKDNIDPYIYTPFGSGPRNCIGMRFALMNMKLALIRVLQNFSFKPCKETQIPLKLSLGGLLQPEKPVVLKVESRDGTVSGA
Chain of B-Raf V600E (P15056 whole entry V600E): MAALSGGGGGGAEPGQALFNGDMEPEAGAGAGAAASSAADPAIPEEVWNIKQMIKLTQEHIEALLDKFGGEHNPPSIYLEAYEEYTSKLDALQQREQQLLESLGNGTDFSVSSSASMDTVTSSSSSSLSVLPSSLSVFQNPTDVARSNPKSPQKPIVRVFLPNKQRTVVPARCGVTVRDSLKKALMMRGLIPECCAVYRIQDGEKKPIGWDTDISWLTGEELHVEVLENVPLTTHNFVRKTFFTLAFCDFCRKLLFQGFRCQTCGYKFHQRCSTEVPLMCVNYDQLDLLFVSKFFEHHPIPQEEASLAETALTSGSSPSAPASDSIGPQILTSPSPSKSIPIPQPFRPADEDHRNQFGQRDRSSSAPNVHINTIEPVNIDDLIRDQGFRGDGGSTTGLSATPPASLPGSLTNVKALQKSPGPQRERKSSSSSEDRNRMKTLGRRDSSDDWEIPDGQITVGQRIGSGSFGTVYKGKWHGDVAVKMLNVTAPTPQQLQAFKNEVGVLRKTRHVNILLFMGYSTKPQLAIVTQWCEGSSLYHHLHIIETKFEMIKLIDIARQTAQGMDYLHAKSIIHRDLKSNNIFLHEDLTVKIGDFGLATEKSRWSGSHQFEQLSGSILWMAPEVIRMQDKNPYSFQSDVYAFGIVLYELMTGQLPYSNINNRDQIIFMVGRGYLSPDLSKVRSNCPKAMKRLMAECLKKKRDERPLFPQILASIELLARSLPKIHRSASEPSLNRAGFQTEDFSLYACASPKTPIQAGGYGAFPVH
Chain of c-Raf-1 (P04049 whole entry): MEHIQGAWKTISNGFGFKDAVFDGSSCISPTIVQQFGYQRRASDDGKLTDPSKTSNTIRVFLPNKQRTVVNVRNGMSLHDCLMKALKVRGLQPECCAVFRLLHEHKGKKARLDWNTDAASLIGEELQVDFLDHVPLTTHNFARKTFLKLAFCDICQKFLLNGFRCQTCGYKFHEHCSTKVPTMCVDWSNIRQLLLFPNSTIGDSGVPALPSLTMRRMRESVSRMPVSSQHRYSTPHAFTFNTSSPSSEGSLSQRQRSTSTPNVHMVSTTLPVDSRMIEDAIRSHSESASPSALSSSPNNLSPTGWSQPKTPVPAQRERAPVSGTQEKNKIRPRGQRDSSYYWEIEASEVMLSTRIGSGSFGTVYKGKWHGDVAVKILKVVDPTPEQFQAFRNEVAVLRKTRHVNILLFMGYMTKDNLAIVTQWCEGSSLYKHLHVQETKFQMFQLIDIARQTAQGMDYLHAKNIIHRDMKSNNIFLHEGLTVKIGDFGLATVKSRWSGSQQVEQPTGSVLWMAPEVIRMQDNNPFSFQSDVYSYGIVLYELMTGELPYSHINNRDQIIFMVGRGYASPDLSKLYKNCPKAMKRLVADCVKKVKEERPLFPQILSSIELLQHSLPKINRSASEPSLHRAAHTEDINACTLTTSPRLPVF

O=C(c1c(F)ccc(NS(=O)(=O)c2c(F)cccc2F)c1F)c1c[nH]c2ncc(Cl)cc12 [P-2003, N-[3-(5-Chloro-1H-pyrrolo[2,3-b]pyridine-3-carbonyl)-2,4-difluoro-phenyl]-2,6-difluoro-benzenesulfonamide]
IC50 (CYP3A4(BFC)): > 10000 nM | IC50 (B-Raf V600E): < 100 nM | IC50 (c-Raf-1): < 10 nM

COc1ccnc2[nH]cc(C(=O)c3c(F)ccc(NS(=O)(=O)c4ccccc4F)c3F)c12 [P-2021, N-[2,4-Difluoro-3-(4-methoxy-1H-pyrrolo[2,3-b]pyridine-3-carbonyl)-phenyl]-2-fluoro-benzenesulfonamide]
IC50 (CYP3A4(BFC)): > 10000 nM | IC50 (B-Raf V600E): < 100 nM | IC50 (c-Raf-1): < 10 nM

COc1ccnc2[nH]cc(C(=O)c3c(F)ccc(NS(=O)(=O)c4cccc(F)c4)c3F)c12 [P-2023, N-[2,4-Difluoro-3-(4-methoxy-1H-pyrrolo[2,3-b]pyridine-3-carbonyl)-phenyl]-3-fluoro-benzenesulfonamide]
IC50 (CYP3A4(BFC)): 5000 to 10000 nM | IC50 (B-Raf V600E): < 10 nM | IC50 (c-Raf-1): < 10 nM

CCCS(=O)(=O)Nc1ccc(F)c(C(=O)c2c[nH]c3ncc(-c4ccc(C(=O)NC)nc4)cc23)c1F [P-2180, 5-{3-[2,6-Difluoro-3-(propane-1-sulfonylamino)-benzoyl]-1H-pyrrolo[2,3-b]pyridin-5-yl}-pyridine-2-carboxylic acid methylamide]
IC50 (CYP3A4(BFC)): > 10000 nM | IC50 (B-Raf V600E): < 10 nM

CCCS(=O)(=O)Nc1ccc(F)c(C(=O)c2c[nH]c3ncc(-c4ccc(C(=O)NC5CC5)nc4)cc23)c1F [P-2181, 5-{3-[2,6-Difluoro-3-(propane-1-sulfonylamino)-benzoyl]-1H-pyrrolo[2,3-b]pyridin-5-yl}-pyridine-2-carboxylic acid cyclopropylamide]
IC50 (CYP3A4(BFC)): > 10000 nM | IC50 (B-Raf V600E): < 10 nM

CCCS(=O)(=O)Nc1ccc(F)c(C(=O)c2c[nH]c3ncc(-c4ccc(OC)nc4OC)cc23)c1F [P-2184, Propane-1-sulfonic acid {3-[5-(2,6-dimethoxy-pyridin-3-yl)-1H-pyrrolo[2,3-b]pyridine-3-carbonyl]-2,4-difluoro-phenyl}-amide]
IC50 (CYP3A4(BFC)): > 10000 nM | IC50 (B-Raf V600E): < 100 nM

CCCS(=O)(=O)Nc1ccc(F)c(C(=O)c2c[nH]c3ncc(-c4ccc(SC)nc4)cc23)c1F [P-2187, Propane-1-sulfonic acid {2,4-difluoro-3-[5-(6-methylsulfanyl-pyridin-3-yl)-1H-pyrrolo[2,3-b]pyridine-3-carbonyl]-phenyl}-amide]
IC50 (CYP3A4(BFC)): > 10000 nM | IC50 (B-Raf V600E): < 10 nM

CCCS(=O)(=O)Nc1ccc(F)c(C(=O)c2c[nH]c3ncc(-c4cncc(S(C)(=O)=O)c4)cc23)c1F [P-2188, Propane-1-sulfonic acid {2,4-difluoro-3-[5-(5-methanesulfonyl-pyridin-3-yl)-1H-pyrrolo[2,3-b]pyridine-3-carbonyl]-phenyl}-amide]
IC50 (CYP3A4(BFC)): > 10000 nM | IC50 (B-Raf V600E): < 10 nM

CCCS(=O)(=O)Nc1ccc(F)c(C(=O)c2c[nH]c3ncc(-c4cnn(Cc5ccccc5)c4)cc23)c1F [P-2190, Propane-1-sulfonic acid {3-[5-(1-benzyl-1H-pyrazol-4-yl)-1H-pyrrolo[2,3-b]pyridine-3-carbonyl]-2,4-difluoro-phenyl}-amide]
IC50 (CYP3A4(BFC)): > 10000 nM | IC50 (B-Raf V600E): < 10 nM

CCCS(=O)(=O)Nc1ccc(F)c(C(=O)c2c[nH]c3ncc(-c4ccnc(F)c4)cc23)c1F [P-2192, Propane-1-sulfonic acid {2,4-difluoro-3-[5-(2-fluoro-pyridin-4-yl)-1H-pyrrolo[2,3-b]pyridine-3-carbonyl]-phenyl}-amide]
IC50 (CYP3A4(BFC)): > 10000 nM | IC50 (B-Raf V600E): < 10 nM

CCCS(=O)(=O)Nc1ccc(F)c(C(=O)c2c[nH]c3ncc(-c4cnc(N5CCOCC5)nc4)cc23)c1F [P-2197, Propane-1-sulfonic acid {2,4-difluoro-3-[5-(2-morpholin-4-yl-pyrimidin-5-yl)-1H-pyrrolo[2,3-b]pyridine-3-carbonyl]-phenyl}-amide]
IC50 (CYP3A4(BFC)): > 10000 nM | IC50 (B-Raf V600E): < 10 nM
